Patent publication US10106538B2, “Inhibitors of protein kinases” (PRINCETON DRUG DISCOVERY INC, priority 2015, dated 2018)

How the values were obtained:
Test in all cases: Off-chip Mobility Shift Assay (MSA) kinase inhibition
Assay type in all cases: biochemical
FGR = molecular target: T1, FGR (Homo sapiens, UniProt P09769); conditions: for inhibition at 0.1 µM: inhibitor concentration 0.1 μM
T1 construct: purchased Carna Biosciences
Method: (§1) Off-chip Mobility Shift Assay (MSA) by Cama Biosciences, Inc (Natick, Mass.) a used for measuring the kinase activity and inhibition. • 1) The 5 μL of x4 compound solution, 5 μL of x4 Substrate/ATP/Metal solution, and 10 μL of x2 kinase solution were prepared with assay buffer (20 mM HEPES, 0.01% Triton X100, 2 mM DTT, pH 7.5) and mixed and incubated in a well of polypropylene 384 well microplate for 1 or 5 hour(s)* at room temperature.

JAK1 = molecular target: T2, JAK1 (Homo sapiens, UniProt P23458); conditions: for inhibition at 0.1 µM: inhibitor concentration 0.1 μM
T2 construct: purchased Carna Biosciences
T2 sequence (P23458 whole entry): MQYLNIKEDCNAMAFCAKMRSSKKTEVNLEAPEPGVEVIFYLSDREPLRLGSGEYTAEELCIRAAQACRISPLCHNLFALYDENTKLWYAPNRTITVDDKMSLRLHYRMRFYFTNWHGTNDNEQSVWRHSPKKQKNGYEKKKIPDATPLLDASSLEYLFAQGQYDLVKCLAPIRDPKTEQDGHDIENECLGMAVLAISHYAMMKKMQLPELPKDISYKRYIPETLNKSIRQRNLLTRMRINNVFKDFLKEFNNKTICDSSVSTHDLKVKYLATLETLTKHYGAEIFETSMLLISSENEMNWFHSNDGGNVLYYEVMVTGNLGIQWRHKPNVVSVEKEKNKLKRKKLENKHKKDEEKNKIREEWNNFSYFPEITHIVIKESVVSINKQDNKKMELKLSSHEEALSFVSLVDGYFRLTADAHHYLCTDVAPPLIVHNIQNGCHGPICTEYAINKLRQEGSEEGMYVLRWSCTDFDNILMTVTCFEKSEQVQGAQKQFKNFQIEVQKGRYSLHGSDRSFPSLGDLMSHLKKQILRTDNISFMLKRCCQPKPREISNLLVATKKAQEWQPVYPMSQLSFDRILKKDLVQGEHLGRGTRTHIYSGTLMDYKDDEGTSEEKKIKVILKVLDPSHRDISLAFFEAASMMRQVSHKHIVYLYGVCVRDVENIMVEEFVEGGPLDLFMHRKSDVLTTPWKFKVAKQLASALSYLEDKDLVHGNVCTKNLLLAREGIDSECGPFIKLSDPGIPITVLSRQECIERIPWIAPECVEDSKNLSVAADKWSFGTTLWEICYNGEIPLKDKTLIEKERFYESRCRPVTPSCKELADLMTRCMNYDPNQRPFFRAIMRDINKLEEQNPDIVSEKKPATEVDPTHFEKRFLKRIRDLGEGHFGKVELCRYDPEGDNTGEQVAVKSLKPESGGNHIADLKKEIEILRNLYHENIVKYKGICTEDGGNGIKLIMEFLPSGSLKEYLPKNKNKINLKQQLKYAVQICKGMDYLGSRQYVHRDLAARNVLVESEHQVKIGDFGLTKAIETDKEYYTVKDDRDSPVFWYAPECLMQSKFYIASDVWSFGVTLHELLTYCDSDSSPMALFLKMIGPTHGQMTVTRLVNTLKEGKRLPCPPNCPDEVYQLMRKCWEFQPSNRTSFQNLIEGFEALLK
Method: as §1

JAK2 = molecular target: T3, JAK2 (Homo sapiens, UniProt O60674); conditions: for inhibition at 0.1 µM: inhibitor concentration 0.1 μM
T3 construct: purchased Carna Biosciences
T3 sequence (O60674 whole entry): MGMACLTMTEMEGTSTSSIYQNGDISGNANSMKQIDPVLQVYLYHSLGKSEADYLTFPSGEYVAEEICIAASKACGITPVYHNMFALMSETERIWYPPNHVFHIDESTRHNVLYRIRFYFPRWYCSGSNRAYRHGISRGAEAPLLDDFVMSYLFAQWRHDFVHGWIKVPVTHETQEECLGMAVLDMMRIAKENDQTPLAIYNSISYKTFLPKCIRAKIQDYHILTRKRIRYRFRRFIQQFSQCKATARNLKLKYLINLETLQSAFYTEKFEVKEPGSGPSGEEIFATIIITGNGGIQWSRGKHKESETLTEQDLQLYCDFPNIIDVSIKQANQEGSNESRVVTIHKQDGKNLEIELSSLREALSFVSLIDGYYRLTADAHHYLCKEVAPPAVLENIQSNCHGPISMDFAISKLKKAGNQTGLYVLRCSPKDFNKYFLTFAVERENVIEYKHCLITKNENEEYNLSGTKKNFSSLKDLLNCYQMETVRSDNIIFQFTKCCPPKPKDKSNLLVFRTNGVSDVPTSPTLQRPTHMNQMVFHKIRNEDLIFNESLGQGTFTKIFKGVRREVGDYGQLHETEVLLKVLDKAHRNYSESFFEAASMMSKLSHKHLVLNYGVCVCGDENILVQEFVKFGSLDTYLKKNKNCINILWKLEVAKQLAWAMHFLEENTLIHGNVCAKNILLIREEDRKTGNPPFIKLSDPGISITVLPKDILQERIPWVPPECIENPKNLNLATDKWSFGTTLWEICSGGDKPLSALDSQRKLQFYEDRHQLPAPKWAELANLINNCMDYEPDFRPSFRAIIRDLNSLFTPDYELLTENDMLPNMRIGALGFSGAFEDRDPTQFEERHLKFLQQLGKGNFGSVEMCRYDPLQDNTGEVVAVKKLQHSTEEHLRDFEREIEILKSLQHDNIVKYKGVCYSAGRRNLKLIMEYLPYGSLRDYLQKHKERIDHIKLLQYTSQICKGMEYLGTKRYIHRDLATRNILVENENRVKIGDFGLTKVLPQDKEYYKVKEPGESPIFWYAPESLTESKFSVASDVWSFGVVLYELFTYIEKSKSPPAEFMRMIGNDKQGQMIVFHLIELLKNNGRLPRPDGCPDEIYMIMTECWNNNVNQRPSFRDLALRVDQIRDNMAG
Method: as §1

KIT(T670I) = molecular target: T4, KIT(T670I) (Homo sapiens, UniProt P10721, T670I); conditions: for inhibition at 0.1 µM: inhibitor concentration 0.1 μM
T4 construct: purchased Carna Biosciences
T4 sequence (P10721 26-976 T670I): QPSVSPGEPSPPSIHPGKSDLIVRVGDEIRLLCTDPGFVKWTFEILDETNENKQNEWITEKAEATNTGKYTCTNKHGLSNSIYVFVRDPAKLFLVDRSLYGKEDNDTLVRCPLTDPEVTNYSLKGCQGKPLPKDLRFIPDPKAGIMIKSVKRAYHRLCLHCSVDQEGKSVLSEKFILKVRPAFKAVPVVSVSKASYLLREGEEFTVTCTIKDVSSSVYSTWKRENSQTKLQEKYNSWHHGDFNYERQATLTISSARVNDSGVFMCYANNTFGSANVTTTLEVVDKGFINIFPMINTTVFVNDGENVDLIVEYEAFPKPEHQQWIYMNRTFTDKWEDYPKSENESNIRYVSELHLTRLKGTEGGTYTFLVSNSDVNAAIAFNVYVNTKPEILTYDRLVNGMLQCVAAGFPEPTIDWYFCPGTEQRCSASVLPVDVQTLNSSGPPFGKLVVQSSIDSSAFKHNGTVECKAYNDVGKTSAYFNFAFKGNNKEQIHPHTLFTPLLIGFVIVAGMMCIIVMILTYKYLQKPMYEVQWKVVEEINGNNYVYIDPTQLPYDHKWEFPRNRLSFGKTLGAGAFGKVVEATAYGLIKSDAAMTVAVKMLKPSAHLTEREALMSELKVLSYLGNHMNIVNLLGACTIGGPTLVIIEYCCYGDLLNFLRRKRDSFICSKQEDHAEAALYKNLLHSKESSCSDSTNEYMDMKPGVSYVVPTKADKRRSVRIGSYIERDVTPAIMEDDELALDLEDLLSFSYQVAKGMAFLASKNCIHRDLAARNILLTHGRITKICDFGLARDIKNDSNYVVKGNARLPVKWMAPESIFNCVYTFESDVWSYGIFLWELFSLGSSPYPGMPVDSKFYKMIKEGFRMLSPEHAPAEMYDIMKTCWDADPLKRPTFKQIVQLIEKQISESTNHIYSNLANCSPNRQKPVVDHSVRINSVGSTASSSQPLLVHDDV
Method: as §1

KIT(D816V) = molecular target: T5, KIT(D816V) (Homo sapiens, UniProt P10721, D816V); conditions: for inhibition at 0.1 µM: inhibitor concentration 0.1 μM
T5 construct: purchased Carna Biosciences
T5 sequence (P10721 26-976 D816V): as the sequence (P10721 26-976 T670I) above, with I645T, D791V counted along it
Method: as §1

KIT(V560G) = molecular target: T6, KIT(V560G) (Homo sapiens, UniProt P10721, V560G); conditions: for inhibition at 0.1 µM: inhibitor concentration 0.1 μM
T6 construct: purchased Carna Biosciences
T6 sequence (P10721 26-976 V560G): as the sequence (P10721 26-976 T670I) above, with V535G, I645T counted along it
Method: as §1

SRM = molecular target: T7, SRM (Homo sapiens, UniProt Q9H3Y6); conditions: for inhibition at 0.1 µM: inhibitor concentration 0.1 μM
T7 construct: purchased Carna Biosciences
T7 sequence (Q9H3Y6 whole entry): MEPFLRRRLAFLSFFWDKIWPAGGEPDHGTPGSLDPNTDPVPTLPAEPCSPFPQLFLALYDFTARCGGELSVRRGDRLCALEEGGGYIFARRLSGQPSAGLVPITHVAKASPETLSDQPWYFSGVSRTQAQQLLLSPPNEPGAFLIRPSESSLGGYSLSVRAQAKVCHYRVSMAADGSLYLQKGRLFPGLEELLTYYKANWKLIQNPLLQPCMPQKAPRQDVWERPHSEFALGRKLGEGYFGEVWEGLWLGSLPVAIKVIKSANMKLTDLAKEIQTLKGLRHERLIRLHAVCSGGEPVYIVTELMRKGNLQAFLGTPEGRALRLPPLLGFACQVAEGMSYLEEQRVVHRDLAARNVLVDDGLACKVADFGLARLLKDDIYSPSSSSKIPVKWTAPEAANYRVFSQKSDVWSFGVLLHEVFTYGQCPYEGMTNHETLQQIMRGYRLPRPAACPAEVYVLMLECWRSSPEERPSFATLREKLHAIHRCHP
Method: as §1

KIT = molecular target: T8, KIT (Homo sapiens, UniProt P10721); conditions: for inhibition at 0.1 µM: inhibitor concentration 0.1 μM
T8 construct: purchased Carna Biosciences
T8 sequence (P10721 26-976): as the sequence (P10721 26-976 T670I) above, with I645T counted along it
Method: as §1

EGFR(L858R) = molecular target: T9, EGFR(L858R) (Homo sapiens, UniProt P00533, L858R); conditions: inhibitor concentration 0.1 μM
T9 construct: purchased Carna Biosciences
Method: as §1

FGFR2 = molecular target: T10, FGFR2 (Homo sapiens, UniProt P21802); conditions: inhibitor concentration 0.1 μM
T10 construct: purchased Carna Biosciences
Method: as §1

PKACα = molecular target: T11, PKACα (Homo sapiens, UniProt P17612); conditions: inhibitor concentration 0.1 μM
T11 construct: purchased Carna Biosciences, Inc
Method: as §1

BTK = molecular target: T12, BTK (Homo sapiens, UniProt Q06187); conditions: inhibitor concentration 0.1 μM
T12 construct: purchased Carna Biosciences
Method: as §1

ALK = molecular target: T13, ALK (Homo sapiens, UniProt Q9UM73); conditions: inhibitor concentration 0.1 μM
T13 construct: purchased Carna Biosciences
Method: as §1

JNK3 = molecular target: T14, JNK3 (Homo sapiens, UniProt P53779); conditions: inhibitor concentration 0.1 μM
T14 construct: purchased Carna Biosciences, Inc
Method: as §1

PIK3CA/PIK3R1 = molecular target: T15, PIK3CA/PIK3R1 (Homo sapiens, UniProt P42336); conditions: inhibitor concentration 0.1 μM
T15 construct: purchased Carna Biosciences
Method: as §1

Erk5 = molecular target: T16, Erk5 (Homo sapiens, UniProt Q13164); conditions: inhibitor concentration 0.1 μM
T16 construct: purchased Carna Biosciences
Method: as §1

RET = molecular target: T17, RET (Homo sapiens, UniProt P07949); conditions: inhibitor concentration 0.1 μM
T17 construct: purchased Carna Biosciences
Method: as §1

MNK1 = molecular target: T18, MNK1 (Homo sapiens, UniProt Q9BUB5); conditions: inhibitor concentration 0.1 μM
T18 construct: purchased Carna Biosciences
Method: as §1

JNK1 = molecular target: T19, JNK1 (Homo sapiens, UniProt P45983); conditions: inhibitor concentration 0.1 μM
T19 construct: purchased Carna Biosciences
Method: as §1

PIM2 = molecular target: T20, PIM2 (Homo sapiens, UniProt Q9P1W9); conditions: inhibitor concentration 0.1 μM
T20 construct: purchased Carna Biosciences
Method: as §1

HER4 = molecular target: T21, HER4 (Homo sapiens, UniProt Q15303); conditions: inhibitor concentration 0.1 μM
T21 construct: purchased Carna Biosciences
Method: as §1

FLT3 = molecular target: T22, FLT3 (Homo sapiens, UniProt P36888); conditions: inhibitor concentration 0.1 μM
T22 construct: purchased Carna Biosciences
T22 sequence (P36888 27-993): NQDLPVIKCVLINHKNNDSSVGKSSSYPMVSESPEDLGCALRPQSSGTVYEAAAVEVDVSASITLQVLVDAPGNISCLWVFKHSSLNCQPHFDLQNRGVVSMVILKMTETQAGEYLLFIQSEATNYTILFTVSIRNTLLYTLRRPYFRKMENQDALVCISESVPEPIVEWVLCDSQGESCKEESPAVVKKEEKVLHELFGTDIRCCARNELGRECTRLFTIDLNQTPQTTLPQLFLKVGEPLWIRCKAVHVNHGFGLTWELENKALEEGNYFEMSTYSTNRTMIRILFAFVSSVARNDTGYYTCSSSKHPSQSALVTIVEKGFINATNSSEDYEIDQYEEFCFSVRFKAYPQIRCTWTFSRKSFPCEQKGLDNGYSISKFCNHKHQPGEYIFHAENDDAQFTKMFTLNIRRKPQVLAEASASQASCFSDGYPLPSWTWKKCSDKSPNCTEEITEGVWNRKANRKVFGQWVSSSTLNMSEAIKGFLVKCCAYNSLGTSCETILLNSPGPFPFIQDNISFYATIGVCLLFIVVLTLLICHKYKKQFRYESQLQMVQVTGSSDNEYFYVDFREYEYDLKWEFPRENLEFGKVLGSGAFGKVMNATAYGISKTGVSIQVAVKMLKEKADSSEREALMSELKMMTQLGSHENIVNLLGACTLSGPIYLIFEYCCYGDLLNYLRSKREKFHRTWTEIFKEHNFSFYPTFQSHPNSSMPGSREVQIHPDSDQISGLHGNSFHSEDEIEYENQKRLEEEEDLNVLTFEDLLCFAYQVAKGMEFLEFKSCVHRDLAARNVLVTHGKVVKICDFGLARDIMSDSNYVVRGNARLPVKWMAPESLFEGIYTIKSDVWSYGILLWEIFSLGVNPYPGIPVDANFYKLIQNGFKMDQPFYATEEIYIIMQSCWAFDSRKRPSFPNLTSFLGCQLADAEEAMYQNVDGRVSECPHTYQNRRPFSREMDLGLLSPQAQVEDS
Method: as §1

LYNb = molecular target: T23, LYNb (Homo sapiens, UniProt P07948); conditions: inhibitor concentration 0.1 μM
T23 construct: purchased Carna Biosciences
Method: as §1

EGFR = molecular target: T24, EGFR (Homo sapiens, UniProt P00533); conditions: inhibitor concentration 0.1 μM
T24 construct: purchased Carna Biosciences
Method: as §1

MNK2 = molecular target: T25, MNK2 (Homo sapiens, UniProt Q9HBH9); conditions: inhibitor concentration 0.1 μM
T25 construct: purchased Carna Biosciences
T25 sequence (Q9HBH9 whole entry): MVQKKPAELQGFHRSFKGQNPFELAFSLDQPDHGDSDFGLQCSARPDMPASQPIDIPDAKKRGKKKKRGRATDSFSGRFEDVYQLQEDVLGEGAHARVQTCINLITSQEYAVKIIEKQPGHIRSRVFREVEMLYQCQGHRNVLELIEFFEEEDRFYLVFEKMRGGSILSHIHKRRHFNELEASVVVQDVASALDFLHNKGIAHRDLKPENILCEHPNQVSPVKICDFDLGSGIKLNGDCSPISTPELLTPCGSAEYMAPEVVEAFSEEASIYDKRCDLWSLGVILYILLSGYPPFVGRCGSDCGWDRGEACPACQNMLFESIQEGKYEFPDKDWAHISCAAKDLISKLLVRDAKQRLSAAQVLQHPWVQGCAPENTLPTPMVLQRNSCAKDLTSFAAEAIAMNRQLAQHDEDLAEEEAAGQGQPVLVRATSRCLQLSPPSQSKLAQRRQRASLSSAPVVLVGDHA
Method: as §1

[1] = inhibitor concentration 0.01 μM, 0.01 µM

T1 sequence (P09769 whole entry): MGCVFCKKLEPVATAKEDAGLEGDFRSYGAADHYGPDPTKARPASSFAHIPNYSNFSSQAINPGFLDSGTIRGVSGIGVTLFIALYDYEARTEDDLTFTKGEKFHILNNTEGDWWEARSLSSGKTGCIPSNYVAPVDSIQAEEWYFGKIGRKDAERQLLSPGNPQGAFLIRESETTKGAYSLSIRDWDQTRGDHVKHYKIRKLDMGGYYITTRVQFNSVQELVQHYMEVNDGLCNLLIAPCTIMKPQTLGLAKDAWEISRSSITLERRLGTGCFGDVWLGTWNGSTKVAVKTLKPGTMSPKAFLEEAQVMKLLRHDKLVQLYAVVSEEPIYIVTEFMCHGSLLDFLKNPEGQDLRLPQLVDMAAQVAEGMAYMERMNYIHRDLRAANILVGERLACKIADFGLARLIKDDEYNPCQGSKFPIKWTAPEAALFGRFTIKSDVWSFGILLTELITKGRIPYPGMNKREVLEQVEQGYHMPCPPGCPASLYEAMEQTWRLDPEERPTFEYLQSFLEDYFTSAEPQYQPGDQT

Row | Structure (SMILES) | inhibition at 0.1 µM (EGFR(L858R)) [%] | inhibition at 0.1 µM (FGFR2) [%] | inhibition at 0.1 µM (PKACα) [%] | inhibition at 0.1 µM (BTK) [%] | inhibition at 0.1 µM (ALK) [%] | inhibition at 0.1 µM (JNK3) [%] | inhibition at 0.1 µM (PIK3CA/PIK3R1) [%] | inhibition at 0.1 µM (Erk5) [%] | inhibition at 0.1 µM (RET) [%] | inhibition at 0.1 µM (MNK1) [%] | inhibition at 0.1 µM (FGR) [%] | inhibition at 0.1 µM (JAK1) [%] | inhibition at 0.1 µM (JNK1) [%] | inhibition at 0.1 µM (JAK2) [%] | inhibition at 0.1 µM (PIM2) [%] | inhibition at 0.1 µM (KIT(T670I)) [%] | inhibition at 0.1 µM (HER4) [%] | inhibition at 0.1 µM (KIT(D816V)) [%] | inhibition at 0.1 µM (KIT(V560G)) [%] | inhibition at 0.1 µM (FLT3) [%] | further results
1 | C/C=C/S(=O)(=O)Nc1ccc(F)c(C(=O)c2c[nH]c3ncc(-c4ccc(Cl)cc4)cc23)c1F [200-93b] |  |  |  |  |  |  |  |  |  |  |  |  |  |  |  |  |  |  |  |  | FGR inhibition (FGR; [1]): >20%; JAK1 inhibition (JAK1; [1]): <20%; JAK2 inhibition (JAK2; [1]): <20%; KIT(T670I) inhibition (KIT(T670I); [1]): <20%; KIT(D816V) inhibition (KIT(D816V); [1]): <20%; KIT(V560G) inhibition (KIT(V560G); [1]): <20%; SRM inhibition (SRM; [1]): >20%; KIT inhibition (KIT; [1]): <20%
2 | CC(O)CS(=O)(=O)Nc1ccc(F)c(C(=O)c2c[nH]c3ncc(-c4ccc(Cl)cc4)cc23)c1F (stereo not shown) [200-115] | < 30 | < 30 | < 30 | < 30 | < 30 | < 30 | < 30 | < 30 | < 30 | < 30 | > 30 | < 30 | < 30 | < 30 | < 30 | < 30 | < 30 | < 30 | < 30 | < 30 | inhibition at 0.1 µM (SRM): > 30%; inhibition at 0.1 µM (LYNb): < 30%; inhibition at 0.1 µM (EGFR): < 30%; inhibition at 0.1 µM (MNK2): < 30%; inhibition at 0.1 µM (KIT): < 30%
3 | CC(=O)CS(=O)(=O)Nc1ccc(F)c(C(=O)c2c[nH]c3ncc(-c4ccc(Cl)cc4)cc23)c1F [200-117] | < 30 | < 30 | < 30 | < 30 | < 30 | < 30 | < 30 | < 30 | < 30 | < 30 | > 30 | < 30 | < 30 | < 30 | < 30 | < 30 | < 30 | < 30 | < 30 | < 30 | inhibition at 0.1 µM (SRM): > 30%; inhibition at 0.1 µM (LYNb): > 30%; inhibition at 0.1 µM (EGFR): < 30%; inhibition at 0.1 µM (MNK2): > 30%; inhibition at 0.1 µM (KIT): < 30%
